Test results taken from PMC6821791, “Phase I Trial of Pyragrel, a Novel Thromboxane Synthetase Inhibitor, to Evaluate the Safety, Tolerability, and Pharmacokinetics in Healthy Volunteers” (Frontiers in Pharmacology, 2019).

What was measured:
[1] = Safety assessment, adverse event monitoring (Parts I-V); assay type: in vivo, human
Method: Safety was assessed using subject interviews and adverse event (AE) monitoring. All subjects received laboratory examinations after termination of drug infusion for 48 or 72 h; the examination items are the same as those listed in the screening process. If clinical abnormalities were present, further follow-ups were required until the laboratory test values or vital sign levels of the abnormal items returned to normal values or stable levels. The clinical significance of abnormal laboratory test values was determined by the physicians.
The vital signs were analyzed by repeated measures analysis of variance (ANOVA), and laboratory indexes were analyzed by the paired t-test and one-way ANOVA. Comparison within different dose regimens of pyragrel or among different treatments (pyragrel, ozagrel, and placebo) or production of urinary 11-D-HTXB2 among groups was performed with the t-test, and expected values were considered along with the actual situation. Descriptive methods were used to compare the incidence of AE between pyragrel and ozagrel/placebo or in different pyragrel dose regimens; the normal/abnormal changes in laboratory examinations before and after administration were described.

[2] = parameters: method as in Morio et al., 1993; settings: patients with ozagrel treatment; ref Morio et al., 1993; cited from earlier work
[3] = dog, in vivo; cited from earlier work
[4] = Part I, controls of the 30 mg dose group (ozagrel 80 mg)
[5] = Part I, controls of the 120 mg dose group (ozagrel 80 mg)
[6] = Part I, controls of the 180 mg dose group (ozagrel 80 mg)

O=C(O)/C=C/c1ccc(Cn2ccnc2)cc1 [Ozagrel, Sodium ozagrel, reference compound]
Number of AEs in Part I ([1]; Part I, 36 pyragrel-treated subjects, 8 subjects of ozagrel treatment): 3 | AE Type, Ozagrel/placebo [1, 4]: DB elevation | Number of AEs, Ozagrel/placebo [1, 4]: 1 | Number of AEs, Ozagrel/placebo ([1]; Part I, controls of the 60 mg dose group (ozagrel 80 mg)): 0 | AE Type, Ozagrel/placebo [1, 5]: DB elevation | Number of AEs, Ozagrel/placebo [1, 5]: 1 | AE Type, Ozagrel/placebo [1, 6]: abdominal pain | Number of AEs, Ozagrel/placebo [1, 6]: 1 | Number of AEs, Ozagrel/placebo ([1]; Part I, listed as of the 240 mg dose group): 0 | Number of AEs, Ozagrel/placebo ([1]; Part I, listed as of the 300 mg dose group): 0 | Number of AEs, Ozagrel/placebo ([1]; Total): 3 | Incidence of elevation in conjugated bilirubin (DB elevation) ([1]; all parts, 12/68 subjects of pyragrel, 2/8 subjects of ozagrel): 25% | Incidence rate of severe bleeding [2]: up to 5% | Maximum safe dose [3]: 12.5 mg/kg/day
